# Laboratory results reported in patent publication US12054498B2, “Heteroaromatic macrocyclic ether chemotherapeutic agents” (Nuvalent, Inc., priority 2020, dated 2024).
# What was measured:
# ALK-wt = target: T1, ALK-wt (Homo sapiens, UniProt Q9UM73); test: Biochemical kinase assay, ALK-wt kinase domain; conditions: apparent inhibitory constant, Morrison equation; ATP 2 mM in substrate solution; read-out: ALK-wt Ki^app
# T1 construct: purchased Carna 08-518
# Outline: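 Compound in DMSO added first, then substrate solution (ATP 2 mM; AQT0101 or AQT0104, 26 μM; pH 7.5 HEPES, 10 mM MgCl2), then kinase solution with enzyme at 0.5–3 nM depending on construct. Kinetic read every 2 min for 120 min at 30° C; Ki^app by Morrison regression.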
# ALK L1196M/G1202R = target: T2, ALK L1196M/G1202R (Homo sapiens, UniProt Q9UM73, G1202R/L1196M); test: Biochemical kinase assay, ALK L1196M/G1202R kinase domain; conditions: apparent inhibitory constant, Morrison equation; ATP 2 mM in substrate solution; read-out: ALK-L1196M-G1202R Ki^app
# T2 construct: purchased SignalChem A19-12NG
# T2 sequence (Q9UM73 1116-1392 L1196M/G1202R limits assumed): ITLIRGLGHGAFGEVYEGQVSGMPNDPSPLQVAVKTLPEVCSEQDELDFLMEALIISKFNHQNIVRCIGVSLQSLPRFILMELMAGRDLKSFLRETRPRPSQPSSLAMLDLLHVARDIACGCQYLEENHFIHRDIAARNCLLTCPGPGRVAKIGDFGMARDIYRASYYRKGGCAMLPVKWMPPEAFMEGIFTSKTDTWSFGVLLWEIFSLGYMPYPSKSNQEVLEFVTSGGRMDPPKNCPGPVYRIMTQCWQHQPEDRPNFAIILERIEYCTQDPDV
# Outline: (§1)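 Continuous fluorescence read (λ=485 nm, every 2 min, 120 min, 30° C). Substrate solution held 2 mM ATP and 26 μM AQT0101 (ROS1/ALK) or AQT0104 (TRKA). Kinase solution: ROS1-G2032R 0.5 nM, ROS1-wt 0.6 nM, TRKA 1 nM, ALK double mutant 3 nM. Initial linear rates fed a Morrison-equation fit giving Ki^app.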
# ROS1-wt = target: T3, ROS1-wt (Homo sapiens, UniProt P08922); test: Biochemical kinase assay, ROS1-wt kinase domain; conditions: apparent inhibitory constant, Morrison equation; ATP 2 mM in substrate solution; read-out: ROS1-wt Ki^app
# T3 construct: purchased Carna 08-163
# T3 sequence (P08922 1945-2222 limits assumed): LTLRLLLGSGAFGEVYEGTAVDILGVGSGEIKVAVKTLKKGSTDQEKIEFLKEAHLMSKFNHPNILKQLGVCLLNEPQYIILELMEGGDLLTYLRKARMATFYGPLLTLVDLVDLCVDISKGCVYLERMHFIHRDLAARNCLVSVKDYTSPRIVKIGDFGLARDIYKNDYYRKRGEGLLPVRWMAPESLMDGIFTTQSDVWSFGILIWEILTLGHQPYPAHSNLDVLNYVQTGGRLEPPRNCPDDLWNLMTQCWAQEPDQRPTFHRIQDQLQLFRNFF
# Outline: (§2)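 Kinetic read: 485 nm, 2-min intervals, 120 min, 30 °C. Substrate mix — ATP 2 mM, AQT0101 26 μM, HEPES 50 mM pH 7.5, MgCl2 10 mM. Output: Ki^app, Morrison equation.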
# ROS1-G2032R = target: T4, ROS1-G2032R (Homo sapiens, UniProt P08922, G2032R); test: Biochemical kinase assay, ROS1-G2032R kinase domain; conditions: apparent inhibitory constant, Morrison equation; ATP 2 mM in substrate solution; read-out: ROS1-G2032R Ki^app
# T4 construct: purchased SignalChem R14-12BG
# T4 sequence (P08922 1945-2222 G2032R limits assumed): as the sequence (P08922 1945-2222 limits assumed) above, with G88R counted along it
# Outline: as §2
# TRKA-wt = target: T5, TRKA-wt (Homo sapiens, UniProt P04629); test: Biochemical kinase assay, TRKA-wt kinase domain; conditions: apparent inhibitory constant, Morrison equation; ATP 2 mM in substrate solution; read-out: TRKA-wt Ki^app
# T5 construct: or TRKA-wt (1 nM, BPS Bio, 40280) kinase domains in buffer; purchased BPS Bio 40280
# T5 sequence (P04629 510-781 limits assumed): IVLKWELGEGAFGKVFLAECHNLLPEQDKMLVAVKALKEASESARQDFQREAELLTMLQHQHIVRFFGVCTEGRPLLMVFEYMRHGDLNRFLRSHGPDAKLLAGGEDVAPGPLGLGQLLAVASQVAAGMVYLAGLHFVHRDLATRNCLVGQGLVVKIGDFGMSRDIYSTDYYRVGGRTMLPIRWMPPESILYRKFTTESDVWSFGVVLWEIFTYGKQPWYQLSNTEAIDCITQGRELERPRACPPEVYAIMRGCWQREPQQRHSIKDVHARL
# Outline: as §1
# [1] = target: T6, Ba/F3 cells CD74-ROS1 wild-type (wt) (Homo sapiens, UniProt P08922); test: Ba/F3 cell proliferation assay, CD74-ROS1 wild-type; type: cell-based; conditions: 72 hours, CellTiter-Glo
# T6 construct: fusion of the C-terminus of ROS1 with the N-terminus of various partner proteins; host or cells: Ba/F3 (RIKEN), retroviral pMSCV-puro; the other entry of the earlier key: CD74 (P04233, HLA class II histocompatibility antigen gamma chain)
# T6 sequence (P08922 1883-2347 limits assumed): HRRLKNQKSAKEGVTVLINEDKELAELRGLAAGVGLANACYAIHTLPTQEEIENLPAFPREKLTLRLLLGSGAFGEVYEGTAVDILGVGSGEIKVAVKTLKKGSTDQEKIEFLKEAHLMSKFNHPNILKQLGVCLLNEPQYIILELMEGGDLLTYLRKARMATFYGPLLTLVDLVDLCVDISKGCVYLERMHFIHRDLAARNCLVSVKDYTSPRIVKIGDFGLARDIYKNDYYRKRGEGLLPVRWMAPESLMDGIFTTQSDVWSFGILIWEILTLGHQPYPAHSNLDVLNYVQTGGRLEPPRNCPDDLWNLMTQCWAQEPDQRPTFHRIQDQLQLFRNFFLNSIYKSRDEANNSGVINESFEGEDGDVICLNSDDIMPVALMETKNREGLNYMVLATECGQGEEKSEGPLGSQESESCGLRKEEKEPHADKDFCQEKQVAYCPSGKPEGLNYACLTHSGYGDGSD
# Outline: (§3)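 First, retrovirally infected Ba/F3 cells were made IL-3-independent and selected with puromycin (0.8 μg/mL). Next, cells were plated and rested one day. Then compounds in 3-fold dilutions were added for 72 hours before CellTiter-Glo readout.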
# [2] = target: T7, Ba/F3 cells CD74-ROS1 G2032R (Homo sapiens, UniProt P08922, G2032R); test: Ba/F3 cell proliferation assay, CD74-ROS1 G2032R; type: cell-based; conditions: 72 hours, CellTiter-Glo
# T7 construct: fusion of the C-terminus of ROS1 with the N-terminus of various partner proteins; host or cells: Ba/F3 (RIKEN), retroviral pMSCV-puro; the other entry of the earlier key: CD74 (P04233, HLA class II histocompatibility antigen gamma chain)
# T7 sequence (P08922 1883-2347 G2032R limits assumed): as the sequence (P08922 1883-2347 limits assumed) above, with G150R counted along it
# Outline: as §3
# [3] = target: T8, Ba/F3 cells EML4-ALK wt (variant 1) (Homo sapiens, UniProt Q9UM73); test: Ba/F3 cell proliferation assay, EML4-ALK wt (variant 1); type: cell-based; conditions: 72 hours, CellTiter-Glo
# T8 construct: echinoderm microtubule-associated protein-like 4 (EML4) gene and the ALK tyrosine kinase domain; host or cells: Ba/F3 (RIKEN), retroviral pMSCV-puro; the other entry of the earlier key: EML4 (Q9HC35, Echinoderm microtubule-associated protein-like 4)
# T8 sequence (Q9UM73 with tags, fused parts or gaps): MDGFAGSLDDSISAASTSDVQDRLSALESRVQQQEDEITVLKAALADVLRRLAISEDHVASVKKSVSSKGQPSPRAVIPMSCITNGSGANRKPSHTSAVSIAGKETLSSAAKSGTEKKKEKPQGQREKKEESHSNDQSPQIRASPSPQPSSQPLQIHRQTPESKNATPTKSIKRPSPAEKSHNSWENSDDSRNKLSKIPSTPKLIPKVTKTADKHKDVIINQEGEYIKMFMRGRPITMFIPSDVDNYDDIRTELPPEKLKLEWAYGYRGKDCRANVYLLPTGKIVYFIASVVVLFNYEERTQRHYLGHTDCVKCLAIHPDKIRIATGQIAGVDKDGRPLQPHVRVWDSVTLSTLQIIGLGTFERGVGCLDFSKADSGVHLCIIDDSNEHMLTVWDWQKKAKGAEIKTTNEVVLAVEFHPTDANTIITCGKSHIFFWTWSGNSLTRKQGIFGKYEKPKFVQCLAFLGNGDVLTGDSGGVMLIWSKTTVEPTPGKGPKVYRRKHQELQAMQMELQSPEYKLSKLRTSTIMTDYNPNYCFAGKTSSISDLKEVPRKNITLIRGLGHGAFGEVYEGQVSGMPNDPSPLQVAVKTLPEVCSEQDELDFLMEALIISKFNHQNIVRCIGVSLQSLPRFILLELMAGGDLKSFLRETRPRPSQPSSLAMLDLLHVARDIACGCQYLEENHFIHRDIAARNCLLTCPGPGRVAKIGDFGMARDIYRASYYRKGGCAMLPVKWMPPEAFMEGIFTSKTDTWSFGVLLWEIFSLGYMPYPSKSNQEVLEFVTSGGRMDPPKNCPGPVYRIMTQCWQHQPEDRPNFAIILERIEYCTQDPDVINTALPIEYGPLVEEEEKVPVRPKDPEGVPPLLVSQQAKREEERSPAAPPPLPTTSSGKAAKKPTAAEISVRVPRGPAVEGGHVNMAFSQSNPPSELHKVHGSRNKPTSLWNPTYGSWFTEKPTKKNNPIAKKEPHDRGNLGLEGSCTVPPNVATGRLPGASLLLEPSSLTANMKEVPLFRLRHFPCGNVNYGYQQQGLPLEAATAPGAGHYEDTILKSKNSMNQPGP
# Outline: (§4)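 IC50 values come from four-parameter logistic regression of CellTiter-Glo luminescence after 72 h exposure to 3-fold serial dilutions. Cells are Ba/F3 transformed by retroviral fusion-kinase constructs, grown without IL-3 under puromycin, plated at 1,000 per well a day before dosing.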
# [4] = target: T9, Ba/F3 cells EML4-ALK L1196M/G1202R (variant 1) (Homo sapiens, UniProt Q9UM73, G1202R/L1196M); test: Ba/F3 cell proliferation assay, EML4-ALK L1196M/G1202R (variant 1); type: cell-based; conditions: 72 hours, CellTiter-Glo
# T9 construct: echinoderm microtubule-associated protein-like 4 (EML4) gene and the ALK tyrosine kinase domain; host or cells: Ba/F3 (RIKEN), retroviral pMSCV-puro; the other entry of the earlier key: EML4 (Q9HC35, Echinoderm microtubule-associated protein-like 4)
# T9 sequence (Q9UM73 with tags, fused parts or gaps L1196M/G1202R): as the sequence (Q9UM73 with tags, fused parts or gaps) above, with L635M, G641R counted along it
# Outline: as §4
# Ba/F3 cells TPM3-TRKA = target: T10, Ba/F3 cells TPM3-TRKA (Homo sapiens, UniProt P04629); test: Ba/F3 cell proliferation assay, TPM3-TRKA; type: cell-based; conditions: 72 hours, CellTiter-Glo, read-out: TPM3-NTRK1-wt IC50
# T10 construct: host or cells: Ba/F3 (RIKEN), retroviral pMSCV-puro; the other entry of the earlier key: TPM3 (P06753, Tropomyosin alpha-3 chain)
# T10 sequence (P04629 510-796 limits assumed): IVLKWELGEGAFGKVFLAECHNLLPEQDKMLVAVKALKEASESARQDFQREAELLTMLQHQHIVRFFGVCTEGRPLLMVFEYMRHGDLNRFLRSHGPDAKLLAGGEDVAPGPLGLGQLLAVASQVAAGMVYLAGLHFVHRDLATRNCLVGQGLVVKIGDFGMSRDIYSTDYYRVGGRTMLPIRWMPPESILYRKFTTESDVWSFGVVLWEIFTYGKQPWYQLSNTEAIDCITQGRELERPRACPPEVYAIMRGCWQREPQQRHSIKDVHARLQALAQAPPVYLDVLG
# Outline: as §4
# [5] = system: TPM3-NTRK1-wt IC50 / primary target IC50 (e.g. CD74-ROS1-wt); test: TRKA selectivity in Ba/F3 cells (TRKA potency divided by primary target potency); type: cell-based; conditions: for TPM3-NTRK1-wt/CD74-ROS1-G2032R selectivity ratio: TRKA potency / CD74-ROS1-G2032R potency; for TPM3-NTRK1-wt/CD74-ROS1-wt selectivity ratio: TRKA potency / CD74-ROS1-wt potency; for TPM3-NTRK1-wt/EML4-ALK-L1196M-G1202R selectivity ratio: TRKA potency / EML4-ALK-L1196M-G1202R potency; for TPM3-NTRK1-wt/EML4-ALK-wt selectivity ratio: TRKA potency / EML4-ALK-wt potency
# Experimental: TRKA selectivity was calculated by dividing a compound's TRKA potency by its primary target potency (e.g. TPM3-NTRK1-wt IC50/CD74-ROS1-wt IC50). Compound selectivity can be interpreted by binning ratio values: bin A for very high selectivity, ratio >30-fold; bin B for high selectivity, ratio >10-fold; bin C for moderate selectivity, ratio ≥1; and bin D for low selectivity, ratio <1. […] (nd=not determined).
# T1 sequence (Q9UM73 1116-1392 limits assumed): as the sequence (Q9UM73 1116-1392 L1196M/G1202R limits assumed) above, with M81L, R87G counted along it
Compound,Ki (ALK-wt) [nM],Ki (ALK L1196M/G1202R) [nM],Ki (ROS1-wt) [nM],Ki (ROS1-G2032R) [nM],Ki (TRKA-wt) [nM],IC50 [1] [nM],IC50 [2] [nM],IC50 [3] [nM],IC50 [4] [nM],IC50 (Ba/F3 cells TPM3-TRKA) [nM],TPM3-NTRK1-wt/CD74-ROS1-G2032R selectivity ratio [5],TPM3-NTRK1-wt/CD74-ROS1-wt selectivity ratio [5],TPM3-NTRK1-wt/EML4-ALK-L1196M-G1202R selectivity ratio [5],TPM3-NTRK1-wt/EML4-ALK-wt selectivity ratio [5]
"CCn1ncc2c1-c1cnc(N)c(c1)O[C@H](C)c1cc(F)ccc1-c1cc(Cl)nn1C2 [Example 16, (19R)-10-chloro-3-ethyl-16-fluoro-19-methyl-20-oxa-3,4,8,9,23-pentaazapentacyclo[19.3.1.0^2,^6.0^8,^12.0^13,^18]pentacosa-1(24),2(6),4,9,11,13,15,17,21(25),22-decaen-22-amine]",< 50,< 50,< 50,< 50,< 50,0.1 to 50,0.1 to 50,0.1 to 50,0.1 to 50,50 to 500,"A (bin A for very high selectivity, ratio >30-fold)","A (bin A for very high selectivity, ratio >30-fold)","C (bin C for moderate selectivity, ratio ≥1)","B (bin B for high selectivity, ratio >10-fold)"
"CCn1ncc2c1-c1cnc(N)c(c1)O[C@H](C)c1cc(F)ccc1-c1ncnn1C2 [Example 35, (19R)-3-ethyl-16-fluoro-19-methyl-20-oxa-3,4,8,9,11,23-hexaazapentacyclo[19.3.1.0^2,^6.0^8,^12.0^13,^18]pentacosa-1(24),2(6),4,9,11,13,15,17,21(2 5),22-decaen-22-amine]",< 50,< 50,< 50,< 50,50 to 500,0.1 to 50,0.1 to 50,0.1 to 50,50 to 500,> 500,"A (bin A for very high selectivity, ratio >30-fold)","A (bin A for very high selectivity, ratio >30-fold)","C (bin C for moderate selectivity, ratio ≥1)","A (bin A for very high selectivity, ratio >30-fold)"
"CCc1nsc2c1-c1cnc(N)c(c1)O[C@H](C)c1cc(F)ccc1-c1ncnn1C2 [Example 44, (19R)-3-ethyl-16-fluoro-19methyl-20-oxa-5-thia-4,8,9,11,23-pentaazapentacyclo[19.3.1.0^2,^6.0^8,^12.0^13,^18]pentacosa-1(24),2(6),3,9,11,13,15,17,21(25),22-decaen-22-amine]",< 50,50 to 500,< 50,50 to 500,> 500,0.1 to 50,0.1 to 50,0.1 to 50,50 to 500,> 500,"A (bin A for very high selectivity, ratio >30-fold)","A (bin A for very high selectivity, ratio >30-fold)","C (bin C for moderate selectivity, ratio ≥1)","A (bin A for very high selectivity, ratio >30-fold)"
"CCn1nc(Cl)c2c1-c1cnc(N)c(c1)O[C@H](C)c1cc(F)ccc1-c1oc(C)nc1C2 [Example 84, (19R)-5-chloro-3-ethyl-16-fluoro-10,19-dimethyl-11,20-dioxa-3,4,9,23-tetraazapentacyclo[19.3.1.0^2,^6.0^8,^12.0^13,^18]pentacosa-1(24),2(6),4,8(12),9,13,15,17,21(25),22-decaen-22-amine]",< 50,< 50,< 50,< 50,> 500,0.1 to 50,0.1 to 50,50 to 500,50 to 500,> 500,"A (bin A for very high selectivity, ratio >30-fold)","A (bin A for very high selectivity, ratio >30-fold)","C (bin C for moderate selectivity, ratio ≥1)","B (bin B for high selectivity, ratio >10-fold)"
"C[C@H]1Oc2cc(cnc2N)-c2c(cnn2CC(F)F)Cc2nn(C)nc2-c2ccc(F)cc21 [Example 24, (19R)-3-(2,2-difluoroethyl)-16-fluoro-10,19-dimethyl-20oxa3,4,9,10,11,23-hexaazapentacyclo[19.3.1.0^2,^6.0^8,^12.0^13,^18]pentacosa-1(24),2(6),4,8,11,13,15,17,21 (25),22-decaen-22-amine]",< 50,< 50,< 50,< 50,> 500,0.1 to 50,0.1 to 50,0.1 to 50,50 to 500,> 500,"A (bin A for very high selectivity, ratio >30-fold)","A (bin A for very high selectivity, ratio >30-fold)","B (bin B for high selectivity, ratio >10-fold)","A (bin A for very high selectivity, ratio >30-fold)"
"C[C@H]1Oc2cc(cnc2N)-c2c(cnn2C2CCC2)Cn2ncc(C#N)c2-c2ccc(F)cc21 [Example 10, (19R)-22-amino-3-cyclobutyl-16-fluoro-19-methyl-20-oxa-3,4,8,9,23-pentaazapentacyclo[19.3.1.0^2,^6.0^8,^12.0^13,^18]pentacosa-1(24),2(6),4,9,11,13,15,1 7,21(25),22-decaene-11-carbonitrile]",< 50,< 50,< 50,< 50,> 500,0.1 to 50,0.1 to 50,0.1 to 50,50 to 500,> 500,"A (bin A for very high selectivity, ratio >30-fold)","A (bin A for very high selectivity, ratio >30-fold)","B (bin B for high selectivity, ratio >10-fold)","A (bin A for very high selectivity, ratio >30-fold)"
